Patent EP1077981B1, “NOVEL CEPHALOSPORIN COMPOUNDS, PROCESSES FOR PREPARATION THEREOF AND ANTIMICROBIAL COMPOSITIONS CONTAINING THE SAME” (LG CHEMICAL LIMITED, priority 1998, dated 1999)
≈ marks a conversion by molar mass, not a printed value. Where two headings read alike, the source gives them in different places.

Tests used:
Experiment in all cases: MIC against standard strains (agar dilution)
Assay type in all cases: cell-based
[1] = test system: Enterobacter cloacae P99
Procedure: (§1) Test example 1: Measurement of Minimum Inhibitory Concentration (MIC)
(§2) Specifically, test compounds were diluted by 2-fold dilution method and dispersed in Mueller-Hinton agar medium and then, 2µℓ of test strains were inoculated at a concentration of 10^7 cfu(colony forming unit)/mℓ on the medium and incubated for 20 hours at 37°C.

[2] = test system: Moraxella catarrhalis C2431
Procedure: as §1, §2

[3] = test system: Citrobacter diversus 2046E; conditions: Citrobacter koseri
Procedure: as §1, §2

[4] = test system: Escherichia coli 10536
Procedure: as §1, §2

[5] = test system: Escherichia coli TEM3 3455E; conditions: TEM33455E, 20 h
Procedure: as §1, §2

[6] = test system: Escherichia coli 3190Y; conditions: Escherichia coli, 3190Y, 20 h
Procedure: as §1, §2

[7] = test system: Escherichia coli 851E; conditions: Escherichia coli, 851E, 20 h
Procedure: as §1, §2

[8] = test system: Enterobacter cloacae IND+VE 1194E
Procedure: as §1, §2

[9] = test system: Enterococcus faecalis 29212
Procedure: as §1, §2

[10] = test system: Pseudomonas aeruginosa 1912E
Procedure: as §1, §2

[11] = test system: Pseudomonas aeruginosa 6065Y
Procedure: as §1, §2

[12] = test system: Acinetobacter calcoaceticu 15473
Procedure: as §1, §2

[13] = test system: Staphylococcus aureus 77
Procedure: as §1, §2

[14] = test system: Salmonella typhimurium 14028; conditions: Salmonella enterica
Procedure: as §1, §2

[15] = test system: Serratia marcescens 1826E
Procedure: as §1, §2

[16] = test system: Moraxella catarrhalis 25240
Procedure: as §1, §2

[17] = test system: Staphylococcus aureus 241
Procedure: as §1, §2

[18] = test system: Klebsiella aerogenes K1+ 1082E
Procedure: as §1, §2

[19] = test system: Klebsiella pneumoniae 2011E
Procedure: as §1, §2

[20] = test system: Staphylococcus aureus giorgio
Procedure: as §1, §2

[21] = test system: Staphylococcus epidermidi 887E
Procedure: as §1, §2

[22] = test system: Klebsiella aerogenes SHV-1 1976E; conditions: Klebsiella aerogenes, 20 h
Procedure: as §1, §2

[23] = test system: Morganella morganii 1375E
Procedure: as §1, §2

[24] = test system: Proteus vulgaris 6059
Procedure: as §1, §2

[25] = test system: Escherichia coli TEM1 1193E; conditions: TEM11193E, 20 h
Procedure: as §1, §2

[26] = test system: Citrobacter freundii 8090
Procedure: as §1, §2

[27] = test system: Escherichia coli TEM9 2639E; conditions: TEM92639E
Procedure: as §1, §2

[28] = test system: Staphylococcus aureus 6538p
Procedure: as §1, §2

CCO/N=C(\C(=O)NC1C(=O)N2C(C(=O)O)=C(Sc3cc(N)nc(N)n3)CSC12)c1nsc(N)n1 (centres unmarked) [compound 29]
MIC ([1]; Enterobacter cloacae, P99, 20 h): > 64 µg/mL | MIC ([2]; Moraxella catarrhalis, C2431, 20 h): ≤ 0.008 µg/mL | MIC ([3]; 2046E, 20 h): > 64 µg/mL | MIC ([4]; Escherichia coli, 10536, 20 h): 0.13 µg/mL (≈ 0.241 µM) | MIC [5]: 32 µg/mL (≈ 59.4 µM) | MIC [6]: 0.063 µg/mL (≈ 0.117 µM) | MIC [7]: 0.25 µg/mL (≈ 0.464 µM) | MIC ([8]; Enterobacter cloacae, 20 h): > 64 µg/mL | MIC ([9]; Enterococcus faecalis, 29212, 20 h): 64 µg/mL (≈ 119 µM) | MIC ([10]; Pseudomonas aeruginosa, 1912E, 20 h): 8 µg/mL (≈ 14.9 µM) | MIC ([11]; Pseudomonas aeruginosa, 6065Y, 20 h): > 64 µg/mL | MIC ([12]; Acinetobacter, 15473, 20 h): 32 µg/mL (≈ 59.4 µM) | MIC ([13]; Staphylococcus aureus, 77, 20 h): 4 µg/mL (≈ 7.43 µM) | MIC ([14]; TYPHIMURIUM, 20 h): 1 µg/mL (≈ 1.86 µM) | MIC ([15]; Serratia marcescens, 1826E, 20 h): 4 µg/mL (≈ 7.43 µM) | MIC ([16]; Moraxella catarrhalis, 25240, 20 h): ≤ 0.008 µg/mL | MIC ([17]; Staphylococcus aureus, 241, 20 h): 8 µg/mL (≈ 14.9 µM) | MIC ([18]; Klebsiella aerogenes, 20 h): > 64 µg/mL | MIC ([19]; Klebsiella pneumoniae, 2011E, 20 h): 2 µg/mL (≈ 3.71 µM) | MIC ([20]; Staphylococcus aureus, 20 h): 1 µg/mL (≈ 1.86 µM) | MIC ([21]; Staphylococcus, 887E, 20 h): 8 µg/mL (≈ 14.9 µM) | MIC [22]: 1 µg/mL (≈ 1.86 µM) | MIC ([23]; Morganella morganii, 1375E, 20 h): 0.25 µg/mL (≈ 0.464 µM) | MIC ([24]; Proteus vulgaris, 6059, 20 h): 0.063 µg/mL (≈ 0.117 µM) | MIC [25]: 1 µg/mL (≈ 1.86 µM) | MIC ([26]; Citrobacter freundii, 8090, 20 h): 2 µg/mL (≈ 3.71 µM) | MIC ([27]; Escherichia coli, 20 h): 64 µg/mL (≈ 119 µM) | MIC ([28]; Staphylococcus aureus, 6538P, 20 h): 2 µg/mL (≈ 3.71 µM)

Nc1cc(SC2=C(C(=O)O)N3C(=O)C(NC(=O)/C(=N\O)c4csc(N)n4)C3SC2)nc(N)n1 (centres unmarked) [compound 26, 7-[(Z)-2-(2-amino-thiazol-4-yl)-2-hydroxyimino-acetylamino]-3-(2,6-diamino-pyrimidin-4-ylsulfanyl)-8-oxo-5-thia-1-azabicyclo[4,2,0]oct-2-ene-2-carboxylic acid]
MIC ([1]; Enterobacter cloacae P99, Mueller-Hinton agar, 20 hours at 37°C, read-out: MIC): > 64 µg/mL | MIC ([2]; Moraxella catarrhalis C2431, Mueller-Hinton agar, 20 hours at 37°C, read-out: MIC): 0.016 µg/mL (≈ 0.0314 µM) | MIC ([3]; Citrobacter diversus 2046E, Mueller-Hinton agar, 20 hours at 37°C, read-out: MIC): > 64 µg/mL | MIC ([4]; Escherichia coli 10536, Mueller-Hinton agar, 20 hours at 37°C, read-out: MIC): 0.063 µg/mL (≈ 0.124 µM) | MIC [5]: 64 µg/mL (≈ 126 µM) | MIC [6]: 0.031 µg/mL (≈ 0.0608 µM) | MIC [7]: 0.063 µg/mL (≈ 0.124 µM) | MIC ([8]; Enterobacter cloacae IND+VE 1194E, Mueller-Hinton agar, 20 hours at 37°C, read-out: MIC): > 64 µg/mL | MIC ([9]; Enterococcus faecalis 29212, Mueller-Hinton agar, 20 hours at 37°C, read-out: MIC): 16 µg/mL (≈ 31.4 µM) | MIC ([10]; Pseudomonas aeruginosa 1912E, Mueller-Hinton agar, 20 hours at 37°C, read-out: MIC): > 64 µg/mL | MIC ([11]; Pseudomonas aeruginosa 6065Y, Mueller-Hinton agar, 20 hours at 37°C, read-out: MIC): > 64 µg/mL | MIC ([12]; Acinetobacter calcoaceticu 15473, Mueller-Hinton agar, 20 hours at 37°C, read-out: MIC): 32 µg/mL (≈ 62.8 µM) | MIC ([13]; Staphylococcus aureus 77, Mueller-Hinton agar, 20 hours at 37°C, read-out: MIC): 2 µg/mL (≈ 3.92 µM) | MIC ([14]; Salmonella typhimurium 14028, Mueller-Hinton agar, 20 hours at 37°C, read-out: MIC): 0.13 µg/mL (≈ 0.255 µM) | MIC ([15]; Serratia marcescens 1826E, Mueller-Hinton agar, 20 hours at 37°C, read-out: MIC): 64 µg/mL (≈ 126 µM) | MIC ([16]; Moraxella catarrhalis 25240, Mueller-Hinton agar, 20 hours at 37°C, read-out: MIC): ≤ 0.008 µg/mL | MIC ([17]; Staphylococcus aureus 241, Mueller-Hinton agar, 20 hours at 37°C, read-out: MIC): 8 µg/mL (≈ 15.7 µM) | MIC ([18]; Klebsiella aerogenes K1+ 1082E, Mueller-Hinton agar, 20 hours at 37°C, read-out: MIC): > 64 µg/mL | MIC ([19]; Klebsiella pneumoniae 2011E, Mueller-Hinton agar, 20 hours at 37°C, read-out: MIC): 1 µg/mL (≈ 1.96 µM) | MIC ([20]; Staphylococcus aureus giorgio, Mueller-Hinton agar, 20 hours at 37°C, read-out: MIC): 0.25 µg/mL (≈ 0.491 µM) | MIC ([21]; Staphylococcus epidermidi 887E, Mueller-Hinton agar, 20 hours at 37°C, read-out: MIC): 2 µg/mL (≈ 3.92 µM) | MIC [22]: 0.5 µg/mL (≈ 0.981 µM) | MIC ([23]; Morganella morganii 1375E, Mueller-Hinton agar, 20 hours at 37°C, read-out: MIC): 0.25 µg/mL (≈ 0.491 µM) | MIC ([24]; Proteus vulgaris 6059, Mueller-Hinton agar, 20 hours at 37°C, read-out: MIC): 0.031 µg/mL (≈ 0.0608 µM) | MIC [25]: 0.5 µg/mL (≈ 0.981 µM) | MIC ([26]; Citrobacter freundii 8090, Mueller-Hinton agar, 20 hours at 37°C, read-out: MIC): 8 µg/mL (≈ 15.7 µM) | MIC ([27]; Escherichia coli TEM9 2639E, Mueller-Hinton agar, 20 hours at 37°C, read-out: MIC): 32 µg/mL (≈ 62.8 µM) | MIC ([28]; Staphylococcus aureus 6538p, Mueller-Hinton agar, 20 hours at 37°C, read-out: MIC): 0.5 µg/mL (≈ 0.981 µM)
